In the supplement of paper PMC6723410:

Experiments:
GUMC-403 [1] = test: AC50 for reduction of cell viability; higher = less potent; conditions: 48 h
GUMC-403 [2] = test: viability at highest tested concentration (max response) relative to DMSO (% of DMSO control); higher = less cytotoxic; conditions: library / dose series: MIPE library, 11-point 1:3 dilution, 48 h
How it was run: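 The value is viability at the highest tested concentration, expressed relative to vehicle control. Patient-derived GUMC-403 papilloma cells, grown by conditional reprogramming, were seeded at 700/well in 5 μL F + Y medium in 1536-well plates. After an overnight incubation at 37 °C, they received 23 nL of compound by pin tool for 48 h. Readout was CellTiter-Glo luminescence on a ViewLux, normalised to vehicle wells (100%) and empty wells (0%).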

[3] = library / dose series: MIPE library, 11-point 1:3 dilution
[4] = library / dose series: NPC library, 8-point 1:5 dilution

| Compound | AC50 for reduction of cell viability (GUMC-403 [1]; [3]) | viability (GUMC-403 [2]; top concentration 46.1 µM) | AC50 for reduction of cell viability (GUMC-403 [1]; [4]) | viability (GUMC-403 [2]; top concentration 92.2 µM) |
| --- | --- | --- | --- | --- |
| Cc1c(CN2CCN(C(=O)[C@H](C)O)CC2)sc2c(N3CCOCC3)nc(-c3cnc(N)nc3)nc12 | 148 nM | 54.1 |  |  |
| CCOC(=O)[C@H](CCc1ccccc1)N[C@@H](C)C(=O)N1[C@H](C(=O)O)C[C@@H]2CCC[C@@H]21 | 26400 nM | 4.65 |  |  |
| CC(C)n1nc(-c2cc3cc(O)ccc3[nH]2)c2c(N)ncnc21 |  | 69.2 | 1190 nM |  |
| COc1ccc([C@@H]2CNC(=O)C2)cc1OC1CCCC1 | 2960 nM | 51 |  |  |
| N=C(NCCCCCCNC(=N)NC(=N)Nc1ccc(Cl)cc1)NC(=N)Nc1ccc(Cl)cc1 | 26400 nM | 5.73 |  |  |
| CC1(COc2ccc3c(c2)ncn3-c2ccc3cccc(N4CCC(N)CC4)c3n2)COC1 | 10.5 nM | 51.9 |  |  |
| C/C=C(/C)C(=O)O[C@H]1C(C)=C2[C@H]([C@@H]1OC(=O)CCCCCCC)[C@@](C)(OC(C)=O)C[C@H](OC(=O)CCC)[C@@]1(O)[C@H]2OC(=O)[C@@]1(C)O | 526 nM | 57.2 |  |  |
| CN(C)c1ccc2cc(C(=O)N[C@@H](CCCNC(=N)CCl)C(=O)NCc3ccccc3)ccc2c1 | 20900 nM | 46.3 |  |  |
| CC(C)C[C@H](NC(=O)[C@H](Cc1ccccc1)NC(=O)c1cnccn1)B(O)O | 264 nM | 3.84 | 150 nM |  |
| COc1ccc(F)c(F)c1C(=O)c1cnc(NC2CCN([S+](C)(=O)[O-])CC2)nc1N | 4690 nM | 55.6 |  |  |
| CC(C)CC(=O)Nc1n[nH]c2c1CN(C(=O)C1CCN(C)CC1)C2(C)C | 1480 nM | 15.9 |  |  |
| COc1cccc2c1C(=O)c1c(O)c3c(c(O)c1C2=O)C[C@@](O)(C(=O)CO)C[C@@H]3O[C@H]1C[C@H](N)[C@@H](O)[C@H](C)O1 | 2090 nM | 48.5 |  |  |
| CC[C@@]1(O)C(=O)OC\C2=C1\C=C\3N(CC4=C3N=C5C=CC=CC5=C4)C2=O | 16600 nM | 32.3 |  |  |
| CNC(=O)Nc1ccc(-c2nc(N3CC4CCC(C3)O4)c3cnn(C4CCC5(CC4)OCCO5)c3n2)cc1 | 3.32 nM | 62.9 |  |  |
| CC#C[C@]1(O)CC[C@H]2[C@@H]/3CCC/4=C/C(=O)CCC4=C3[C@H](C[C@]12C)C5=CC=C(C=C5)N(C)C | 833 nM | 59 |  |  |
| C[S+](=O)([O-])CCNCc1ccc(-c2ccc3ncnc(Nc4ccc(OCc5cccc(F)c5)c(Cl)c4)c3c2)o1 | 10500 nM | 8.12 |  |  |
| Cc1[nH]c2ccccc2c1CCNCc1ccc(/C=C/C(=O)NO)cc1 | 2640 nM | 38.2 |  |  |

| Compound | AC50 for reduction of cell viability (GUMC-403 [1]; [3]) | viability (GUMC-403 [2]; top concentration 46.1 µM) | AC50 for reduction of cell viability (GUMC-403 [1]; [4]) | viability (GUMC-403 [2]; top concentration 92.2 µM) |
| --- | --- | --- | --- | --- |
| CC(C)C[C@H](NC(=O)[C@H](CCc1ccccc1)NC(=O)CN1CCOCC1)C(=O)N[C@@H](Cc1ccccc1)C(=O)N[C@@H](CC(C)C)C(=O)[C@@]1(C)CO1 | 1050 nM | 6.18 |  |  |
| CN1CCN(c2cc(C(=O)Nc3ccc4c(c3)-c3c(c(C(N)=O)nn3-c3ccc(F)cc3)CC4)c(Cl)cn2)CC1 | 5260 nM | 7.1 |  |  |
| CC/C(=C(/c1ccc(O)cc1)c1ccc(OCCNC)cc1)c1ccccc1 | 23500 nM | 23.9 |  |  |
| CC(=O)Nc1ccc([C@H](C)C(=O)Nc2ncc(C(C)C)s2)cc1 | 1660 nM | 15.9 |  |  |
| C[C@H]1O[C@H](C[C@H](O)[C@@H]1O)O[C@H]2[C@@H](O)C[C@@H](O[C@@H]2C)O[C@H]3[C@@H](O)C[C@@H](O[C@@H]3C)O[C@H]4CC[C@@]5(C)[C@H](CC[C@@H]6[C@@H]5C[C@@H](O)[C@]7(C)[C@H](CC[C@]67O)C/8=C/C(=O)OC8)C4 | 191 nM |  |  | 48.5 |
| C[C@@]12OC(=O)[C@@]1(NC(=O)[C@@H]2CCCl)[C@@H](O)[C@H]\3CCC\C=C3 | 3720 nM | 6.32 |  |  |
| CC(C)NC[C@@H](C(=O)N1CCN(c2ncnc3c2[C@H](C)C[C@H]3O)CC1)c1ccc(Cl)cc1 | 2350 nM | 76.6 |  |  |
| O=C(OC)[C@]12CC[C@@]3(C)[C@]4(C)CC[C@H]5[C@@](C)(C)C(=O)C(=C[C@]5(C)C4=CC(=O)[C@@H]3[C@@H]2C[C@](C)(C)CC1)C#N | 2960 nM | 4.67 |  |  |
| C[C@@H]1O[C@@H](O[C@H]\2CC[C@]\3(C)[C@@H]4CC[C@]5(C)[C@@H](CC[C@@]5(O)[C@H]4CCC3=C2)C/6=C/OC(=O)/C=C6)[C@H](O)[C@H](O)[C@@H]1O | 16.6 nM | 44.3 |  |  |
| N#CC(=C(/N)Sc1ccccc1N)/C(C#N)=C(\N)Sc1ccccc1N | 4690 nM | 50.4 |  |  |
| Nc1cccc(-c2cc3c(Oc4cccc(O)c4)ncnc3[nH]2)c1 | 8330 nM | 58 |  |  |
| C=CC(=O)Nc1cccc(Nc2nc(NC3CCC(N(C)C)CC3)nc3c2ncn3C(C)C)c1 (configuration not stated) | 2960 nM | 8.03 |  |  |
| CN(c1ncccc1CNc1nc(Nc2ccc3c(c2)CC(=O)N3)ncc1C(F)(F)F)[S+](C)(=O)[O-] | 7430 nM | 28 |  |  |
| NC(=O)Nc1cc(-c2cccc(F)c2)sc1C(=O)N[C@H]1CCCNC1 | 16600 nM | 12.8 |  |  |
| O=C1c2c(O)ccc(O)c2C(=O)c2c(NCCNCCO)ccc(NCCNCCO)c21 | 7430 nM | 12.4 |  |  |
| CC(C)c1cnn2c(NCc3ccccc3)cc(N[C@@H](CO)[C@H](O)CO)nc12 | 372 nM | 19.1 |  |  |
